Results: the supplement of paper PMC4977894
Structures can show the parent of a compound that is named as a salt. ± gives the standard deviation of the averaged measurements.

Key:
[1] = tested on: Homo sapiens (human subject panel, olfactory perception); assay: perceived odor pleasantness rating (rating 0-100); higher = more pleasant
Summary of the method: (§1)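 Values for familiarity, intensity and pleasantness are averaged over subjects. The panel of 55 healthy people aged 18–50 excluded the six lowest performers and rated each paraffin-oil dilution of a molecule at high and low concentrations. Ratings were made only for stimuli the subject reported smelling, on a slider converted to a 0–100 scale.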

[2] = tested on: Homo sapiens (human subject panel, olfactory perception); assay: perceived odor intensity rating (rating 0-100); higher = stronger perceived smell
Summary of the method: as §1

[3] = tested on: Homo sapiens (human subject panel, olfactory perception); assay: perceived odor familiarity rating (rating 0-100); higher = more familiar
Summary of the method: as §1

[4] = odor dilution in paraffin oil: 1/1,000
[5] = odor dilution in paraffin oil: 1/100,000
[6] = odor dilution in paraffin oil: 1/10
[7] = odor dilution in paraffin oil: 1/10,000,000

| Compound | perceived odor pleasantness rating [1, 4] | perceived odor pleasantness rating [1, 5] | perceived odor intensity rating [2, 4] | perceived odor intensity rating [2, 5] | perceived odor familiarity rating [3, 4] | perceived odor familiarity rating [3, 5] | perceived odor pleasantness rating [1, 6] | perceived odor intensity rating [2, 6] | perceived odor familiarity rating [3, 6] | perceived odor pleasantness rating [1, 7] | perceived odor intensity rating [2, 7] | perceived odor familiarity rating [3, 7] |
| --- | --- | --- | --- | --- | --- | --- | --- | --- | --- | --- | --- | --- |
| CC1CCCC(=O)O1 (stereo unspecified) [delta-Hexalactone] | 45 ± 25 | 50.5 ± 21 | 48.4 ± 32 | 18.4 ± 21 | 38.8 ± 31 | 32.7 ± 28 |  |  |  |  |  |  |
| CCCCCC(=O)O [caproic acid] | 14.3 ± 19 | 19.4 ± 19 | 84.3 ± 15 | 66.5 ± 28 | 46.7 ± 33 | 45.1 ± 29 |  |  |  |  |  |  |
| CC(=O)OCCC1=CCC2CC1C2(C)C (stereo unspecified) [Nopol acetate] | 70.6 ± 21 | 66.6 ± 25 | 53.6 ± 29 | 40.7 ± 28 | 54.9 ± 30 | 52.7 ± 31 |  |  |  |  |  |  |
| CC1=CCC(C(C)(C)OC=O)CC1 (stereo unspecified) [Terpinyl formate] | 37.8 ± 26 | 46.9 ± 30 | 42.2 ± 30 | 14.6 ± 20 | 45.6 ± 31 | 28.1 ± 26 |  |  |  |  |  |  |
| C=CC1(C)CCC(C(C)(C)O)O1 (stereo unspecified) [linalool oxide] | 46.5 ± 26 | 49.6 ± 19 | 44.4 ± 31 | 15.9 ± 19 | 42.8 ± 31 | 37 ± 28 |  |  |  |  |  |  |
| O=Cc1ccccc1O [salicylaldehyde] | 30.6 ± 26 | 39.5 ± 23 | 77.9 ± 19 | 53.5 ± 28 | 51.7 ± 31 | 39.9 ± 28 |  |  |  |  |  |  |
| c1ccc2ncccc2c1 [Quinoline] | 22.4 ± 24 | 34.1 ± 24 | 80.7 ± 18 | 56.4 ± 27 | 47.7 ± 34 | 41.4 ± 26 |  |  |  |  |  |  |
| CCCCC(C)=O [2-hexanone] | 42.2 ± 24 | 48.6 ± 23 | 71.4 ± 25 | 25.5 ± 31 | 57.6 ± 32 | 31.4 ± 27 |  |  |  |  |  |  |
| CC(O)c1ccccc1 (stereo not drawn) [alpha-Methylbenzyl alcohol] | 50.4 ± 26 | 44.5 ± 23 | 48.4 ± 30 | 15.4 ± 16 | 45 ± 32 | 30.4 ± 30 |  |  |  |  |  |  |
| CCCCCC(=O)OCC [ethyl hexanoate] | 78.6 ± 19 | 71.6 ± 16 | 73.9 ± 20 | 53.3 ± 28 | 69.4 ± 27 | 56.4 ± 29 |  |  |  |  |  |  |
| O=C(O)CCCCC(=O)O [Adipic acid] | 38.5 ± 18 |  | 14 ± 16 |  | 34 ± 29 |  | 52.7 ± 24 | 35.7 ± 28 | 43.5 ± 27 |  |  |  |
| CCCCCCC1CCCC(=O)O1 (stereo unspecified) [delta-Undecalactone] | 60.7 ± 31 | 60.7 ± 25 | 64.9 ± 28 | 34.4 ± 30 | 51.5 ± 33 | 41.4 ± 30 |  |  |  |  |  |  |
| COc1ccc(C(C)=O)cc1 [Acetanisole] | 68.8 ± 19 |  | 44.1 ± 28 |  | 50 ± 26 |  | 53.3 ± 28 | 82.2 ± 16 | 56.5 ± 30 |  |  |  |
| CCCCCCOC(=O)CC [Hexyl propionate] | 52.1 ± 24 | 38.5 ± 22 | 59 ± 32 | 27.6 ± 32 | 43.1 ± 28 | 40.8 ± 33 |  |  |  |  |  |  |
| CC(=O)OC/C=C(\C)CCC=C(C)C [geranyl acetate] |  | 54.4 ± 19 |  | 16.3 ± 19 |  | 36.4 ± 31 |  |  |  | 47.9 ± 25 | 20.4 ± 24 | 38.7 ± 32 |
| CC(=O)CCc1ccc(O)cc1 [4-(4-Hydroxyphenyl)-2-butanone] | 50.6 ± 24 |  | 46.3 ± 30 |  | 46.1 ± 28 |  | 49.6 ± 27 | 50.2 ± 29 | 40.1 ± 29 |  |  |  |
| COC(=O)c1ccccc1O [methyl salicylate] | 60.8 ± 26 | 56.7 ± 21 | 71.9 ± 22 | 16.7 ± 22 | 63.9 ± 32 | 38.1 ± 32 |  |  |  |  |  |  |
| CC(C)c1ccc(CO)cc1 [4-Isopropylbenzyl alcohol] | 40.4 ± 25 |  | 31.9 ± 32 |  | 33.1 ± 29 |  | 31.8 ± 23 | 71.6 ± 22 | 46.4 ± 31 |  |  |  |

| Compound | perceived odor pleasantness rating [1, 4] | perceived odor pleasantness rating [1, 5] | perceived odor intensity rating [2, 4] | perceived odor intensity rating [2, 5] | perceived odor familiarity rating [3, 4] | perceived odor familiarity rating [3, 5] | perceived odor pleasantness rating [1, 6] | perceived odor intensity rating [2, 6] | perceived odor familiarity rating [3, 6] | perceived odor pleasantness rating [1, 7] | perceived odor intensity rating [2, 7] | perceived odor familiarity rating [3, 7] |
| --- | --- | --- | --- | --- | --- | --- | --- | --- | --- | --- | --- | --- |
| COC(=O)c1ccccc1 [methyl benzoate] |  | 45.9 ± 23 |  | 36.1 ± 30 |  | 35.1 ± 32 |  |  |  | 47.8 ± 23 | 14.2 ± 22 | 38 ± 32 |
| c1cnccn1 [pyrazine] | 44.8 ± 21 | 39.6 ± 24 | 18.9 ± 22 | 38.5 ± 32 | 35.4 ± 27 | 36.8 ± 28 |  |  |  |  |  |  |
| COC(=O)c1cccnc1 [Methyl nicotinate] | 38.3 ± 24 |  | 63 ± 26 |  | 43.5 ± 30 |  | 38.4 ± 29 | 71.6 ± 28 | 37.2 ± 30 |  |  |  |
| CCCCCCCCCC(=O)OCC [Ethyl decanoate] | 49.6 ± 24 |  | 21.2 ± 24 |  | 38.9 ± 27 |  | 58.2 ± 26 | 59.8 ± 30 | 50.9 ± 30 |  |  |  |
| CC(=O)c1ccc(C)o1 [2-Acetyl-5-methylfuran] | 36.5 ± 25 | 47.4 ± 27 | 71.5 ± 22 | 25.2 ± 31 | 38.2 ± 28 | 38.2 ± 29 |  |  |  |  |  |  |
| CCCCCC1=C(C)CCC1=O [Dihydrojasmone] | 44.5 ± 26 | 48.5 ± 24 | 62.7 ± 28 | 44.3 ± 28 | 48.1 ± 28 | 42.9 ± 29 |  |  |  |  |  |  |
| CCCCCC(O)CC (stereo unspecified) [3-Octanol] | 38.2 ± 25 | 49.5 ± 18 | 72 ± 23 | 26.9 ± 25 | 45.5 ± 29 | 35.9 ± 28 |  |  |  |  |  |  |
| C=CCSCC=C [Allyl Sulfide] |  | 37.2 ± 25 |  | 43.2 ± 35 |  | 40.8 ± 30 |  |  |  | 42.7 ± 23 | 27.3 ± 24 | 35.4 ± 25 |
| Cc1ccco1 [2-Methylfuran] |  | 52.6 ± 21 |  | 25.1 ± 29 |  | 36.9 ± 27 |  |  |  | 39.4 ± 22 | 28.9 ± 27 | 38.5 ± 24 |
| N[C@@H](CS)C(=O)O [L-Cysteine] | 39 ± 23 |  | 33.4 ± 30 |  | 33.8 ± 28 |  | 12.8 ± 20 | 71.7 ± 30 | 46.2 ± 36 |  |  |  |
| CCCCCCCCCCCC(=O)OCCC(C)C [Isoamyl laurate] | 47.7 ± 22 |  | 20.3 ± 22 |  | 31.8 ± 22 |  | 33.7 ± 25 | 59.9 ± 29 | 41.5 ± 29 |  |  |  |
| CC(C)CCO [isoamyl alcohol] | 51 ± 33 | 39.2 ± 25 | 63.5 ± 32 | 23.4 ± 26 | 50.8 ± 33 | 25.9 ± 21 |  |  |  |  |  |  |
| CCCCCOC(=O)CCCCC [Amyl hexanoate] | 53.8 ± 27 |  | 28.8 ± 29 |  | 38.1 ± 30 |  | 44.6 ± 28 | 67.3 ± 25 | 39.1 ± 30 |  |  |  |
| CCCC(C)C(=O)OCC (stereo unspecified) [Ethyl 2-methylpentanoate] | 76.8 ± 20 | 64.9 ± 21 | 67.9 ± 22 | 49.4 ± 24 | 67.2 ± 24 | 50.8 ± 28 |  |  |  |  |  |  |
| Cc1ccc2oc(=O)ccc2c1 [6-Methylcoumarin] | 53.9 ± 28 |  | 62.9 ± 27 |  | 55.2 ± 30 |  | 40.8 ± 32 | 80.1 ± 19 | 48.9 ± 32 |  |  |  |
| OCC1CCCO1 (stereo unspecified) [Tetrahydrofurfuryl alcohol] | 42.7 ± 25 | 45.1 ± 22 | 29.6 ± 27 | 18.4 ± 23 | 30.3 ± 29 | 40.3 ± 28 |  |  |  |  |  |  |
| CCCCCCCCC(=O)OC [Methyl nonanoate] | 57.8 ± 26 | 57.9 ± 24 | 57 ± 28 | 28.8 ± 30 | 50.8 ± 30 | 45.9 ± 30 |  |  |  |  |  |  |
| c1ccsc1 [Thiophene (replicate)] | 33.7 ± 27 | 36 ± 22 | 66.4 ± 25 | 27.6 ± 31 | 53.9 ± 31 | 42.1 ± 26 |  |  |  |  |  |  |
